Values joined by “and” are separate entries in the source; they are usually repeats but may differ in a detail not shown here. Equal values may be shown once.
How the values were obtained:
mTORC1 (mTOR/GbL/Raptor) = mTORC1 (mTOR/GbL/Raptor) (Homo sapiens, UniProt P42345); experiment: mTOR/GbL/Raptor (mTORC1) ELISA Assay; assay type: biochemical; details: 0.2 nM mTORC1, 10 μM ATP, 50 nM NHis-tagged 4E-BP1; phosphorylation of 4E-BP1; read-out: IC50
Protocol: mTOR/GbL/Raptor (mTORC1) ELISA Assay
The measurement of mTORC1 enzyme activity was performed in an ELISA assay format following the phosphorylation of 4E-BP1 protein. All experiments were performed in the 384-well format. Generally, 0.5 μL DMSO containing varying concentrations of the test compound was mixed with 15 μL enzyme solution. Kinase reactions were initiated with the addition of 15 μL of substrates-containing solution. The assay conditions were as follows; 0.2 nM mTORC1, 10 μM ATP and 50 nM NHis-tagged 4E-BP1 in 20 mM Hepes, pH 7.2, 1 mM DTT, 50 mM NaCl, 10 mM MnCl2, 0.02 mg/mL BSA, 0.01% CHAPS, 50 mM β-glycerophosphate. Following an incubation of 120 minutes at ambient temperature, 20 μL of the reaction volume was transferred to a Ni-Chelate-coated 384-well plate. The binding step of the 4E-BP1 protein proceeded for 60 minutes, followed by washing 4 times each with 50 μL of Tris-buffered saline solution (TBS). Anti-phospho-4E-BP1 rabbit-IgG (20 μL, 1:5000) in 5% BSA-TBST (0.2% Tween-20 in TBS) was added and further incubated for 60 minutes. Incubation with a secondary HRP-tagged anti-IgG was similarly performed after washing off the primary antibody (4 washes of 50 μL). Following the final wash step with TBST, 20 μL of SuperSignal ELISA Femto (Pierce Biotechnology) was added and the luminescence measured using an EnVision plate reader.

PI3Kα = PI3Kα (Homo sapiens, UniProt P42336); experiment: PI3K Biochemical Assays (ATP consumption, luciferase-luciferin chemiluminescence); details: PI3Kα 1.5 nM, ATP 1 μM, PIP2 10 μM; percent of ATP consumed
Sequence of PI3Kα (P42336 whole entry): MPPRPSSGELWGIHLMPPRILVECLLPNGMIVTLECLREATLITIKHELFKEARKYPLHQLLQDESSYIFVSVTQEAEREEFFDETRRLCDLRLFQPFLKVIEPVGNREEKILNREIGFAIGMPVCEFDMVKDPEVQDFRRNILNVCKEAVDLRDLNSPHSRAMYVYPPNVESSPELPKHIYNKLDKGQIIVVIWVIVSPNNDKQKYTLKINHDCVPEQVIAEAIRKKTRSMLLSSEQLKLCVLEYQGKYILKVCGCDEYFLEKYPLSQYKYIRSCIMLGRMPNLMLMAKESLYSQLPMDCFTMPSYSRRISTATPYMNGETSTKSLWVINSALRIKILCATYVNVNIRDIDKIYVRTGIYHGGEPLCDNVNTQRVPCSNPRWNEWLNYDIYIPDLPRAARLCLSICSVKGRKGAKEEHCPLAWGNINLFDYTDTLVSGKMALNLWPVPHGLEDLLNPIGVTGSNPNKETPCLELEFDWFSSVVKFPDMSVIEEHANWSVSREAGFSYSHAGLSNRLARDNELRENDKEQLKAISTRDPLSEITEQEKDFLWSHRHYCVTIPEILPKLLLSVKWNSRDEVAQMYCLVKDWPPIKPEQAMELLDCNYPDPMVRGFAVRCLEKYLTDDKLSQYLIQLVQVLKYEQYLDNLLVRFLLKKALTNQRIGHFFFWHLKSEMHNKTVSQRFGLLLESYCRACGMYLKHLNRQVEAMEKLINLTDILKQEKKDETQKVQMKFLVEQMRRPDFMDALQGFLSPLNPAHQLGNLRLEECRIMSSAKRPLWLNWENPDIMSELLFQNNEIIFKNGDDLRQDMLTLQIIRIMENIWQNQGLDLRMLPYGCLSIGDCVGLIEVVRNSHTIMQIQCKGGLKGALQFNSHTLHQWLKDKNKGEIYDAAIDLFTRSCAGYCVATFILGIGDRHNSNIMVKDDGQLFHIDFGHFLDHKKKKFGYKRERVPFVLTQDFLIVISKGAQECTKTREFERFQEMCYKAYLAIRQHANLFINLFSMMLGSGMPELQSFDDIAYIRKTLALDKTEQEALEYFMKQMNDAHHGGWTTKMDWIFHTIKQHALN
Sequence of PI3Kα (P27986 whole entry partner): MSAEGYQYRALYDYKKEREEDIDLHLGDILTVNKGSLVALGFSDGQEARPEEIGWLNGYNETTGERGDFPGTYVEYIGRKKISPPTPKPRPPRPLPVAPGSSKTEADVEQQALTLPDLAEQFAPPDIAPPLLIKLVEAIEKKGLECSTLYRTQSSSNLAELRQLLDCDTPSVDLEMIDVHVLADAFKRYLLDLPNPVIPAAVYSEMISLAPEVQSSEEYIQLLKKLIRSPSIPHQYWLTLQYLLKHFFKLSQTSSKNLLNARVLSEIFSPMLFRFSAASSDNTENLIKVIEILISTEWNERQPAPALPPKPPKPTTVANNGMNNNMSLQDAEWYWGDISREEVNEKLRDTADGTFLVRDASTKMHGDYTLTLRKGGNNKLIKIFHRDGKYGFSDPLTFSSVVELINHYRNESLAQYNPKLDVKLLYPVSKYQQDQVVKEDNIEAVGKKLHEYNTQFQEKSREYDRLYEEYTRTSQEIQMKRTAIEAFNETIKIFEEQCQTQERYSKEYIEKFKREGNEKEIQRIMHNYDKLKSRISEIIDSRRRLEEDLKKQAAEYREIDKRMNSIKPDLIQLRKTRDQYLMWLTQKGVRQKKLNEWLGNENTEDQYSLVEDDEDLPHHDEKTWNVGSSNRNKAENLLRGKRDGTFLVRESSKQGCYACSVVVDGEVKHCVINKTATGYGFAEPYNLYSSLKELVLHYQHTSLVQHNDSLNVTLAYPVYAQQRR
Protocol: PI3Kα activity is measured as the percent of ATP consumed following the kinase reaction using luciferase-luciferin-coupled chemiluminescence. Reactions were conducted in 384-well white, medium binding microtiter plates (Greiner). Kinase reactions were initiated by combining test compounds, ATP, substrate (PIP2), and kinase in a 20 μL volume in a buffer solution. The standard PI3Kalpha assay buffer is composed 50 mM Tris, pH 7.5, 1 mM EGTA, 10 mM MgCl2, 1 mM DTT and 0.03% CHAPS. The standard assay concentrations for enzyme, ATP, and substrate are 1.5 nM, 1 μM, and 10 μM, respectively. The reaction mixture was incubated at ambient temperature for approximately 2 h. Following the kinase reaction, a 10 μL aliquot of luciferase-luciferin mix (Promega Kinase-Glo) was added and the chemiluminescence signal measured using a Victor2 plate reader (Perkin Elmer). Total ATP consumption was limited to 40-60% and IC50 values of control compounds correlate well with literature references. Substituting PI3Kα with PI3KIβ, […], or […], the inhibitory activity of the compounds for the other isoforms of I3K were measured.

Compound | IC50 (mTORC1 (mTOR/GbL/Raptor)) [µM] | IC50 (PI3Kα)
CC(F)(F)C1CCN(C(=O)N2CCOc3ccc(-c4cnc5nc(N)[nH]c5c4)cc3C2)CC1 [Compound 42, 6-(4-{[4-(1,1-difluoroethyl)piperidin-1-yl]carbonyl}-2,3,4,5-tetrahydro-1,4-benzoxazepin-7-yl)-1H-imidazo[4,5-b]pyridin-2-amine] | ≤ 0.05 | ≤ 0.075 µM
COC(=O)Nc1nc2ncc(-c3ccc4c(c3)CN(C(=O)N3CCC(O)(CF)CC3)CCO4)cc2[nH]1 [Compound 38, methyl [6-(4-{[4-(fluoromethyl)-4-hydroxypiperidin-1-yl]carbonyl}-2,3,4,5-tetrahydro-1,4-benzoxazepin-7-yl)-1H-imidazo[4,5-b]pyridin-2-yl]carbamate] | 0.05 to 0.25 | 0.075 to 0.2 µM
Nc1nc2ncc(-c3ccc4c(c3)CN(C(=O)N3CCC(C(F)F)CC3)CCO4)cc2[nH]1 [Compound 43, 6-(4-{[4-(difluoromethyl)piperidin-1-yl]carbonyl}-2,3,4,5-tetrahydro-1,4-benzoxazepin-7-yl)-1H-imidazo[4,5-b]pyridin-2-amine] | ≤ 0.05 | 0.075 to 0.2 µM
Cc1nc2ccc(-c3ccc4c(c3)CN(C(=O)N3CCC(c5noc(C)n5)CC3)CCO4)cc2[nH]1 [Compound 162, 7-(2-methyl-1H-benzimidazol-6-yl)-4-{[4-(5-methyl-1,2,4-oxadiazol-3-yl)piperidin-1-yl]carbonyl}-2,3,4,5-tetrahydro-1,4-benzoxazepine] | 0.25 to 0.7 | 1 to 3 µM
COC(=O)Nc1nc2ccc(-c3ccc4c(c3)CN(C(=O)N3CCC(O)(CF)CC3)CCO4)cc2[nH]1 [Compound 15, methyl [6-(4-{[4-(fluoromethyl)-4-hydroxypiperidin-1-yl]carbonyl}-2,3,4,5-tetrahydro-1,4-benzoxazepin-7-yl)-1H-benzimidazol-2-yl]carbamate] | 0.05 to 0.25 | 0.2 to 0.5 µM
CCOC(=O)CN(Cc1ccccc1)C(=O)N1CCOc2ccc(-c3ccc4nc(C)[nH]c4c3)cc2C1 [Compound 151, ethyl N-{[7-(2-methyl-1H-benzimidazol-6-yl)-2,3-dihydro-1,4-benzoxazepin-4(5H)-yl]carbonyl}-N-(phenylmethyl)glycinate] |  | 1 to 3 µM
Cc1nc2ccc(-c3ccc4c(c3)CN(C(=O)N3[C@@H]5CC[C@H]3C[C@@H](CO)C5)CCO4)cc2[nH]1 [Compound 112, (8-{[7-(2-methyl-1H-benzimidazol-6-yl)-2,3-dihydro-1,4-benzoxazepin-4(5H)-yl]carbonyl}-8-azabicyclo[3.2.1]oct-3-(endo)-yl)methanol] |  | 0.2 to 0.5 µM
Cc1nc2ccc(-c3ccc4c(c3)CN(C(=O)N3CC[C@@H](O)C3)CCO4)cc2[nH]1 [Compound 78, (3R)-1-{[7-(2-methyl-1H-benzimidazol-6-yl)-2,3-dihydro-1,4-benzoxazepin-4(5H)-yl]carbonyl}pyrrolidin-3-ol] |  | 0.5 to 1 µM
CC1CCN(C(=O)N2CCOc3ccc(-c4cc(NCc5ccccc5)[nH]n4)cc3C2)CC1 [Compound 9, 3-{4-[(4-methylpiperidin-1-yl)carbonyl]-2,3,4,5-tetrahydro-1,4-benzoxazepin-7-yl}-N-(phenylmethyl)-1H-pyrazol-5-amine] |  | 1 to 3 µM
Cc1nc2ccc(-c3ccc4c(c3)CN(C(=O)N3CCOCC3)CCO4)cc2[nH]1 [Compound 132, 7-(2-methyl-1H-benzimidazol-6-yl)-4-(morpholin-4-ylcarbonyl)-2,3,4,5-tetrahydro-1,4-benzoxazepine] |  | 0.5 to 1 µM
Cc1nc2ccc(-c3ccc4c(c3)CN(C(=O)N3CCCC3)CCO4)cc2[nH]1 [Compound 87, 7-(2-methyl-1H-benzimidazol-6-yl)-4-(pyrrolidin-1-ylcarbonyl)-2,3,4,5-tetrahydro-1,4-benzoxazepine] |  | 0.5 to 1 µM
Cc1nc2ccc(-c3ccc4c(c3)CN(C(=O)N3CCC(C5CCNCC5)CC3)CCO4)cc2[nH]1 [Compound 71, 1-{[7-(2-methyl-1H-benzimidazol-6-yl)-2,3-dihydro-1,4-benzoxazepin-4(5H)-yl]carbonyl}-4,4-bipiperidine] |  | 0.2 to 0.5 µM and 0.5 to 1 µM

The remaining lines, values ahead:

IC50 (mTORC1 (mTOR/GbL/Raptor)) [µM] | IC50 (PI3Kα) | Compound
0.25 to 0.7 | 1 to 3 µM | Cc1nc2ccc(-c3ccc4c(c3)CN(C(=O)N3CCN(c5ccccc5)CC3c3ccccc3)CCO4)cc2[nH]1 (centres unmarked) [Compound 145, 4-[(2,4-diphenylpiperazin-1-yl)carbonyl]-7-(2-methyl-1H-benzimidazol-6-yl)-2,3,4,5-tetrahydro-1,4-benzoxazepine]
0.25 to 0.7 | 0.5 to 1 µM | Cc1nc2ccc(-c3ccc4c(c3)CN(C(=O)N3CCCCCC3c3ccccc3)CCO4)cc2[nH]1 (centres unmarked) [Compound 122, 7-(2-methyl-1H-benzimidazol-5-yl)-4-[(2-phenylazepan-1-yl)carbonyl]-2,3,4,5-tetrahydro-1,4-benzoxazepine]
≤ 0.05 | 0.075 to 0.2 µM | Cc1nc2ccc(-c3ccc4c(c3)CN(C(=O)N3CCC(=O)CC3c3ccccc3)CCO4)cc2[nH]1 (centres unmarked) [Compound 111, 1-{[7-(2-methyl-1H-benzimidazol-6-yl)-2,3-dihydro-1,4-benzoxazepin-4(5H)-yl]carbonyl}-2-phenylpiperidin-4-one]
0.05 to 0.25 | 0.2 to 0.5 µM | O=C1CCN(C(=O)N2CCOc3ccc(-c4cnc5[nH]cnc5c4)cc3C2)C(c2cccc(F)c2)C1 (centres unmarked) [Compound 52, 2-(3-fluorophenyl)-1-{[7-(3H-imidazo[4,5-b]pyridin-6-yl)-2,3-dihydro-1,4-benzoxazepin-4(5H)-yl]carbonyl}piperidin-4-one]
0.25 to 0.7 | 1 to 3 µM | Cc1nc2ccc(-c3ccc4c(c3)CN(C(=O)N3CCC(O)CC3)CCO4)cc2[nH]1 [Compound 68, 1-{[7-(2-methyl-1H-benzimidazol-6-yl)-2,3-dihydro-1,4-benzoxazepin-4(5H)-yl]carbonyl}piperidin-4-ol]
≤ 0.05 | 0.075 to 0.2 µM | O=C(N1CCC(C(F)F)CC1)N1CCOc2ccc(-c3ccc(-c4ncc[nH]4)cc3)cc2C1 [Compound 62, 4-{[4-(difluoromethyl)piperidin-1-yl]carbonyl}-7-[4-(1H-imidazol-2-yl)phenyl]-2,3,4,5-tetrahydro-1,4-benzoxazepine]
0.25 to 0.7 | 0.5 to 1 µM | Cc1nc2ccc(-c3ccc4c(c3)CN(C(=O)N3CCN(c5ccccc5)CC3)CCO4)cc2[nH]1 [Compound 174, 7-(2-methyl-1H-benzimidazol-6-yl)-4-[(4-phenylpiperazin-1-yl)carbonyl]-2,3,4,5-tetrahydro-1,4-benzoxazepine]
≤ 0.05 | ≤ 0.075 µM | O=C1CCN(C(=O)N2CCOc3ccc(-c4ccc(-c5ncc[nH]5)cc4)cc3C2)[C@@H](c2ccc(F)cc2)C1 [Compound 56, (2R)-2-(4-fluorophenyl)-1-({7-[4-(1H-imidazol-2-yl)phenyl]-2,3-dihydro-1,4-benzoxazepin-4(5H)-yl}carbonyl)piperidin-4-one]
≤ 0.05 | ≤ 0.075 µM | Nc1nc2ncc(-c3ccc4c(c3)CN(C(=O)N3CCC(=O)CC3c3cccc(F)c3)CCO4)cc2[nH]1 (centres unmarked) [Compound 48, 1-{[7-(2-amino-1H-imidazo[4,5-b]pyridin-6-yl)-2,3-dihydro-1,4-benzoxazepin-4(5H)-yl]carbonyl}-2-(3-fluorophenyl)piperidin-4-one]
 | 0.5 to 1 µM | CC(=O)c1ccc(N2CCN(C(=O)N3CCOc4ccc(-c5ccc6nc(C)[nH]c6c5)cc4C3)CC2)cc1 [Compound 169, 1-[4-(4-{[7-(2-methyl-1H-benzimidazol-6-yl)-2,3-dihydro-1,4-benzoxazepin-4(5H)-yl]carbonyl}piperazin-1-yl)phenyl]ethanone]
 | 0.2 to 0.5 µM | Cc1nc2ccc(-c3ccc4c(c3)CN(C(=O)N3CCN(c5ccc([N+](=O)[O-])cc5)CC3)CCO4)cc2[nH]1 [Compound 168, 7-(2-methyl-1H-benzimidazol-6-yl)-4-{[4-(4-nitrophenyl)piperazin-1-yl]carbonyl}-2,3,4,5-tetrahydro-1,4-benzoxazepine]
 | 1 to 3 µM | Cc1nc2ccc(-c3ccc4c(c3)CN(C(=O)N3CCCCC3c3cc(C(F)(F)F)cc(C(F)(F)F)c3)CCO4)cc2[nH]1 (centres unmarked) [Compound 115, 4-({2-[3,5-bis(trifluoromethyl)phenyl]piperidin-1-yl}carbonyl)-7-(2-methyl-1H-benzimidazol-6-yl)-2,3,4,5-tetrahydro-1,4-benzoxazepine]
